From patent US20240016765A1, “Use of an alkaloid compound in the preparation of products for the prevention and/or treatment of cardiac damage” (NORTHWEST INSTITUTE OF PLATEAU BIOLOGY, CHINESE ACADEMY OF …, priority 2021, published 2024)

Experiments:
Format in all cases: cell-based
[1] = tested on: Cleaved-Caspase-3; assay: Western blot of Cleaved-Caspase-3 in DOX-treated H9c2 cardiomyocytes; conditions: FIG. 3
Experimental: (§1) (2) Incubate H9c2 cells with alkaloid compound I for 1 hour, then add […] DOX and incubate for 24 hours; extract the proteins, proceed with hydrolysis and collect the resulting solution, centrifuge at 12000 rpm for 15 minutes, collect the supernatant and discard the precipitate, store under −80° C. until analysis. Perform SDS-PAGE electrophoresis (Stepl voltage set at 80V for 30 minutes, followed by Step2 voltage set at 120V for 180 minutes), using 5% concentrated gel. Carry out membrane transfer using a PVDF membrane, with a current of 80 mA for 30 minutes. Then, conduct the closure and hybridization by using 5% skim milk powder for 1 hour of closure, followed by overnight incubation with primary antibody, and 1-2 hours of incubation with secondary antibody at room temperature with gentle shaking. Finally, visualize the proteins by using ECL reagent and observe the expression of Caspase-3 and p-JNK/JNK proteins using a gel imaging system.

[2] = tested on: p-JNK; assay: Western blot of p-JNK/JNK in DOX-treated H9c2 cardiomyocytes; conditions: FIG. 4; for p-JNK expression level compared with DOX model group: 1 h incubation, then DOX 24 h
Experimental: as §1

[3] = tested on: H9c2 cardiomyocytes; assay: Toxicity of alkaloid compound I on H9c2 cardiomyocytes (MTT colorimetric method); conditions: 24 h incubation, FIG. 1
Experimental: H9c2 cells are incubated with different concentrations (0.1 μM, 1 μM, 5 μM, 10 μM, 20 μM, 40 μM, 80 μM, 160 μM) of alkaloid compounds I for 24 h, and then the toxic effects of the alkaloid compounds on cardiomyocytes are evaluated by MTT colorimetric method.

[4] = tested on: H9c2 cardiomyocytes; assay: Effect on DOX-induced H9c2 cardiomyocyte toxicity (MTT colorimetric assay); conditions: 1 h pre-incubation, then 2.5 μM DOX 24 h, FIG. 2
Experimental: (1) H9c2 cells are pre-incubated with alkaloid compound I for lh, then add 2.5 μM doxorubicin (DOX), incubate for 24 h. MTT colorimetric assay is used to determine the apoptotic activity of alkaloid compound I on DOX-induced cardiomyocytes and determine the optimal range of the dose concentration.

| Cleaved-Caspase-3 expression level compared with Con group ([1]; DOX model group, DOX 24 h) | p-JNK expression level compared with Con group ([2]; DOX model group, DOX 24 h) | SMILES | Cleaved-Caspase-3 expression level compared with DOX model group ([1]; 10 μM, 20 μM and 40 μM, 1 h incubation, then DOX 24 h) | toxic effect on H9c2 cell viability compared with Con group ([3]; 80 μM) | toxic effect on H9c2 cell viability compared with Con group ([3]; 0.1-40 μM) | p-JNK expression level compared with DOX model group ([2]; high-dose 40 μM) | p-JNK expression level compared with DOX model group ([2]; low-dose 10 μM) | p-JNK expression level compared with DOX model group ([2]; moderate-dose 20 μM) | difference from DOX model group in DOX-induced cardiomyocyte toxicity ([4]; 5-80 μM) | inhibition of DOX-induced cardiomyocyte toxicity compared with DOX model group ([4]; different concentration ranges) |
| --- | --- | --- | --- | --- | --- | --- | --- | --- | --- | --- |
| significantly higher | significantly higher | COc1cccc2c1C(=O)c1c(O)c3c(c(O)c1C2=O)C[C@@](O)(C(=O)CO)C[C@@H]3O[C@H]1C[C@H](N)[C@H](O)[C@H](C)O1 [DOX, doxorubicin, reference compound] |  |  |  |  |  |  |  |  |
|  |  | O=C(/C=C/c1ccc(O)cc1)NCCCCO [compound I, 4-[(E)-p-coumaroylamino]butan-1-ol] | able to inhibit the elevation of Cleaved-Caspase-3 level induced by DOX to varying degrees | significantly different compared with the Con group | not statistically different from the Con group | a highly significant difference | no statistically significant difference | a highly significant difference | a significant difference or a highly significant difference | all exhibit inhibition of DOX-induced cardiomyocyte toxicity |
